Measurements published in patent US7618990B2, “Oxazolidone derivatives as PR modulators” (Wyeth, priority 2006, dated 2009).

Tests used:
[1] = system: alkaline phosphatase activity in T47D cells; test: Effects of progestins and antiprogestins on alkaline phosphatase activity in T47D cells (antagonist mode); format: cell-based; settings: Homo sapiens, in the presence of 1 nM progesterone, read-out: T47D Alkaline Phosphatase Activity IC50 (nM) or % inhibition; for IC50: 24 h; for inhibition at 3 µM: % inhibition at 3000 nM
Method: (1) Effects of Progestins and Antiprogestins on Alkaline Phosphatase Activity in T47D Cells
PURPOSE: To identify progestins or antiprogestins by determining a compound's effect on alkaline phosphatase activity in T47D cells.
Culture Medium: • DMEM:F12 (1:1) (GIBCO, BRL) supplemented with 5% (v/v) charcoal stripped fetal bovine serum (not heat-inactivated), 100 U/mL penicillin, 100 μg/mL streptomycin, and 2 mM the GlutaMax™ reagent (GIBCO, BRL).
Alkaline Phosphatase Assay Buffer: • I. 0.1M Tris-HCl, pH 9.8, containing 0.2% the Triton® X-100 reagent • II. 0.1M Tris-HCl, pH 9.8, containing 4 mM p-nitrophenyl phosphate (Sigma). B. Cell Culture and Treatment:
Frozen T47D cells were thawed in a 37° C. water bath and diluted to 280,000 cells/mL in culture medium. To each well in a 96-well plate (Falcon, Becton Dickinson Labware), 180 μL of diluted cell suspension was added.
Twenty μL of reference or test compounds diluted in the culture medium was then added to each well. When testing for progestin antagonist activity, reference antiprogestins or test compounds were added in the presence of 1 nM progesterone. The cells were incubated at 37° C. in a 5% CO2/humidified atmosphere for 24 h.
NOTE: For high throughput screening, one concentration of each compound was tested at 0.3 μg/mL. Based on an average molecular weight of 300 g/mol for the compounds in the library, the concentration was approximately 1 μM. Subsequently, active compounds were tested in dose response assays to determine EC50 and IC50. C. Alkaline Phosphatase Enzyme Assay:
At the end of treatment, the medium was removed from the plate. Fifty μL of assay buffer I was added to each well. The plates were shaken in a titer plate shaker for 15 min. Then 150 μL of assay buffer II was added to each well. Optical density measurements were taken at 5 min intervals for 30 min at a test wavelength of 405 nm.
For reference and test compounds, a dose response curve was generated for dose (X-axis) vs. the rate of enzyme reaction (slope) (Y-axis). Square root-transformed data was used for analysis of variance and nonlinear dose response curve fitting for both agonist and antagonist modes. Huber weighting was used to down-weight the effects of outliers. EC50 or IC50 values were calculated from the retransformed values. JMP software (SAS Institute, Inc.) was used for both one-way analysis of variance and non-linear dose response analysis in both single dose and dose response studies.
Progesterone and trimegestone were reference progestins and RU486 was the reference antiprogestin. All reference compounds were run in full dose response curves and the EC50 and IC50 values were calculated.

| SMILES | IC50 [1] [nM] | melting point [°C] | further results |
| --- | --- | --- | --- |
| CC[C@H]1COC(=O)N1c1nc(-c2ccc(C#N)cc2)c(F)s1 [Example 12, 4-{2-[(4S)-4-Ethyl-2-oxo-1,3-oxazolidin-3-yl]-5-fluoro-1,3-thiazol-4-yl}benzonitrile] | 23.3 | 157 to 159 |  |
| CC[C@H]1COC(=O)N1c1nc(-c2ccc(Br)cc2)c(Cl)s1 [Example 13, (4S)-3-[4-(4-Bromophenyl)-5-chloro-1,3-thiazol-2-yl]-4-ethyl-1,3-oxazolidin-2-one] | 124 | 137 to 139 |  |
| C[C@@H]1COC(=O)N1c1nc(-c2cccc(C#N)c2)cs1 [Example 17, 3-{2-[(4R)-4-Methyl-2-oxo-1,3-oxazolidin-3-yl]-1,3-thiazol-4-yl}benzonitrile] |  | 187 to 189 | inhibition at 3 µM [1]: 84% |
| CC1(C)COC(=O)N1c1nc(-c2cccc(Br)c2)cs1 [Example 18, 3-[4-(3-Bromophenyl)-1,3-thiazol-2-yl]-4,4-dimethyl-1,3-oxazolidin-2-one] | 30 | 142 to 144 |  |
| CCC[C@@H]1COC(=O)N1c1nc(-c2ccc(Br)cc2)cs1 [Example 20, (4R)-3-[4-(4-Bromophenyl)-1,3-thiazol-2-yl]-4-propyl-1,3-oxazolidin-2-one] | 70.2 | 114 to 116 |  |
| CCC[C@H]1COC(=O)N1c1nc(-c2ccc(Br)cc2)cs1 [Example 22, (4S)-3-[4-(4-Bromophenyl)-1,3-thiazol-2-yl]-4-propyl-1,3-oxazolidin-2-one] | 64.3 | 116 to 118 |  |
| CC1(C)COC(=O)N1c1nc(-c2ccc(Cl)cc2Cl)cs1 [Example 118, 3-[4-(2,4-Dichlorophenyl)-1,3-thiazol-2-yl]-4,4-dimethyl-1,3-oxazolidin-2-one] |  |  | inhibition at 0.03 µM ([1]; % inhibition at 30 nM): 60% |
| CC1(C)COC(=O)N1c1nc(-c2cccc([N+](=O)[O-])c2)cs1 [Example 124, 4,4-Dimethyl-3-[4-(3-nitrophenyl)-1,3-thiazol-2-yl]-1,3-oxazolidin-2-one] | 59.7 |  |  |
| CC1(C)COC(=O)N1c1nc(-c2ccc(OCc3ccccc3)cc2)cs1 [Example 125, 3-{4-[4-(Benzyloxy)phenyl]-1,3-thiazol-2-yl}-4,4-dimethyl-1,3-oxazolidin-2-one] |  |  | inhibition at 3 µM [1]: 80% |
| Cc1cc(-c2csc(N3C(=O)OCC3(C)C)n2)ccc1F [Example 126, 3-[4-(4-Fluoro-3-methylphenyl)-1,3-thiazol-2-yl]-4,4-dimethyl-1,3-oxazolidin-2-one] | 33.4 |  |  |
| CC1(C)COC(=O)N1c1nc(-c2ccc(Oc3ccccc3)cc2)cs1 [Example 127, 4,4-Dimethyl-3-[4-(4-phenoxyphenyl)-1,3-thiazol-2-yl]-1,3-oxazolidin-2-one] |  |  | inhibition at 3 µM [1]: 87% |
| CC1(C)COC(=O)N1c1nc(-c2ccc(-c3ccccc3)cc2)cs1 [Example 128, 3-(4-Biphenyl-4-yl-1,3-thiazol-2-yl)-4,4-dimethyl-1,3-oxazolidin-2-one] |  |  | inhibition at 3 µM [1]: 47% |
| N#Cc1ccc(-c2csc(N3CCOC3=O)n2)cc1 [Example 132, 4-[2-(2-Oxo-1,3-oxazolidin-3-yl)-1,3-thiazol-4-yl]benzonitrile] | 37.6 |  |  |
| CC1(C)CO/C(=N\S(C)(=O)=O)N1c1nc(-c2ccc(C#N)cc2)cs1 [Example 136, N-{(2Z)-3-[4-(4-Cyanophenyl)-1,3-thiazol-2-yl]-4,4-dimethyl-1,3-oxazolidin-2-ylidene}methanesulfonamide] |  |  | inhibition at 3 µM [1]: 100% |

Continued, in another order:

| IC50 [1] [nM] | melting point [°C] | SMILES | further results |
| --- | --- | --- | --- |
| 3.1 | 183 to 185 | CC1(C)COC(=O)N1c1nc(-c2ccc(C#N)cc2)cs1 [Example 6, 4-[2-(4,4-Dimethyl-2-oxo-1,3-oxazolidin-3-yl)-1,3-thiazol-4-yl]benzonitrile] |  |
| 120 | 105 to 107 | CC[C@H]1COC(=O)N1c1nc(-c2ccc(Br)cc2)c(F)s1 [Example 11, (4S)-3-[4-(4-Bromophenyl)-5-fluoro-1,3-thiazol-2-yl]-4-ethyl-1,3-oxazolidin-2-one] |  |
| 294 | 157 to 159 | CC[C@H]1COC(=O)N1c1nc(-c2ccc(C#N)cc2)c(Cl)s1 [Example 14, 4-{5-Chloro-2-[(4S)-4-ethyl-2-oxo-1,3-oxazolidin-3-yl]-1,3-thiazol-4-yl}benzonitrile] |  |
| 144 | 201 to 203 | CC[C@H]1COC(=O)N1c1nc(-c2ccc(C#N)cc2)c(C#N)s1 [Example 15, 4-(4-Cyanophenyl)-2-[(4S)-4-ethyl-2-oxo-1,3-oxazolidin-3-yl]-1,3-thiazole-5-carbonitrile] |  |
| 142 | 126 to 128 | C[C@@H]1COC(=O)N1c1nc(-c2cccc(Br)c2)cs1 [Example 16, (4R)-3-[4-(3-bromophenyl)-1,3-thiazol-2-yl]-4-methyl-1,3-oxazolidin-2-one] |  |
| 0.45 | 145 to 147 | CCC1(CC)COC(=O)N1c1nc(-c2ccc(C#N)cc2)cs1 [Example 19, 4-[2-(4,4-Diethyl-2-oxo-1,3-oxazolidin-3-yl)-1,3-thiazol-4-yl]benzonitrile] |  |
| 22.5 | 131 to 133 | CCC[C@@H]1COC(=O)N1c1nc(-c2ccc(C#N)cc2)cs1 [Example 21, 4-{2-[(4R)-2-oxo-4-propyl-1,3-oxazolidin-3-yl]-1,3-thiazol-4-yl}benzonitrile] |  |
| 48 |  | CC1(C)COC(=O)N1c1nc(-c2ccc(Cl)c(Cl)c2)cs1 [Example 119, 3-[4-(3,4-Dichlorophenyl)-1,3-thiazol-2-yl]-4,4-dimethyl-1,3-oxazolidin-2-one] |  |
| 247 |  | CC1(C)COC(=O)N1c1nc(-c2ccccc2)cs1 [Example 120, 4,4-Dimethyl-3-(4-phenyl-1,3-thiazol-2-yl)-1,3-oxazolidin-2-one] |  |
| 110 |  | Cc1ccc(-c2csc(N3C(=O)OCC3(C)C)n2)cc1 [Example 121, 4,4-Dimethyl-3-[4-(4-methylphenyl)-1,3-thiazol-2-yl]-1,3-oxazolidin-2-one] |  |
| 557 |  | CC1(C)COC(=O)N1c1nc(-c2ccc3ccccc3c2)cs1 [Example 122, 4,4-Dimethyl-3-[4-(2-naphthyl)-1,3-thiazol-2-yl]-1,3-oxazolidin-2-one] |  |
| 1420 |  | CC1(C)COC(=O)N1c1nc(-c2ccccc2[N+](=O)[O-])cs1 [Example 123, 4,4-Dimethyl-3-[4-(2-nitrophenyl)-1,3-thiazol-2-yl]-1,3-oxazolidin-2-one] |  |
| 20.3 |  | COC(=O)c1ccc(-c2csc(N3C(=O)OCC3(C)C)n2)cc1 [Example 129, Methyl 4-[2-(4,4-dimethyl-2-oxo-1,3-oxazolidin-3-yl)-1,3-thiazol-4-yl]benzoate] |  |
| 181 |  | COC(=O)c1ccc(-c2nc(N3C(=O)OCC3(C)C)sc2Cl)cc1 [Example 130, Methyl 4-[5-chloro-2-(4,4-dimethyl-2-oxo-1,3-oxazolidin-3-yl)-1,3-thiazol-4-yl]benzoate] |  |
| 41.1 |  | O=C1OCCN1c1nc(-c2ccc(Cl)cc2)cs1 [Example 131, 3-[4-(4-Chlorophenyl)-1,3-thiazol-2-yl]-1,3-oxazolidin-2-one] |  |
| 69.6 |  | Cn1cc(-c2csc(N3C(=O)OCC3(C)C)n2)cc1C#N [Example 133, 4-[2-(4,4-Dimethyl-2-oxo-1,3-oxazolidin-3-yl)-1,3-thiazol-4-yl]-1-methyl-1H-pyrrole-2-carbonitrile] |  |
| 284 |  | Cn1cc(C#N)cc1-c1csc(N2C(=O)OCC2(C)C)n1 [Example 134, 5-[2-(4,4-Dimethyl-2-oxo-1,3-oxazolidin-3-yl)-1,3-thiazol-4-yl]-1-methyl-1H-pyrrole-3-carbonitrile] |  |
| 64.4 |  | CC1(C)CO/C(=N\C#N)N1c1nc(-c2ccc(C#N)cc2)cs1 [Example 135, {(2Z)-3-[4-(4-cyanophenyl)-1,3-thiazol-2-yl]-4,4-dimethyl-1,3-oxazolidin-2-ylidene}cyanamide] |  |
| 10.8 |  | CC(=O)/N=C1\OCC(C)(C)N1c1nc(-c2ccc(C#N)cc2)cs1 [Example 137, N-{(2Z)-3-[4-(4-Cyanophenyl)-1,3-thiazol-2-yl]-4,4-dimethyl-1,3-oxazolidin-2-ylidene}acetamide] |  |
